This note sets out measurements from patent US20110009379A1, “INDOLINONE COMPOUND” (ASTELLAS PHARMA INC., priority 2008, published 2011).

Read-outs that look alike come from different tables or passages of the source. Some results are limits rather than exact numbers.

One data set has as its system gastric emptying of rats. Briefly: Activity to gastric emptying of TRPA1 agonist (phenol red, rats). The conditions noted are these: Rattus norvegicus, read-out: ED50 (amount which suppresses 50% of gastric emptying). The class given is in vivo. The text has this:
When EC cell is stimulated by content of a gastrointestinal tract, 5-HT is secreted. The secreted 5-HT promotes the secretion or motility through a 5-HT receptor present in intestinal nerve plexus or gastrointestinal smooth muscle. The secreted 5-HT is instantly taken into a cell by its specific transporter, and is metabolized by […]. Thus, while it is considerably difficult to directly measure the secreted 5-HT concentration, it has been known that gastric emptying is delayed as a physiological activity through 5-HT in rodents. In order to verify in vivo activity through 5-HT of the compound to be tested, activity to gastric emptying of rats by various TRPA1 agonists was studied.
In the experiment, male wistar rats (body weight 290 to 360 g) were used. The animals were purchased from Japan SLC (Shizuoka). The animals were allowed to drink water freely under a constitutive environment.
5 minutes after the medicine was orally administered, 0.05% phenol red solution (1.5 mL) was orally administered. After 15 minutes, rats were put painlessly to death by cervical vertebral dislocation, their stomachs were exenterated, and phenol red was eluted with 0.1M aqueous NaOH solution (5 mL) from the exenterated stomachs. 20% aqueous trichloroacetic acid solution (0.1 mL) was added to the NaOH solution (0.5 mL), followed by stirring and centrifugation at 15,000 rpm, at 4° C., for 10 minutes. 0.5M aqueous NaOH solution (0.2 mL) was added to the supernatant (0.05 mL), followed by stirring, and absorbance at 560 nm was measured using an absorption spectrometer (spectrometer spectramax M2; Molecular Devices, CA, USA).
A gastric emptying was calculated by the following calculating formula.
Gastric emptying (%)=100−(A/B)×100
A: amount of phenol red remaining in stomach
B: amount of phenol red remaining in stomach just after administering phenol red
ED50 values (amount of the compound to be tested which suppresses 50% of gastric emptying, with respect to the control animals without administering the compound to be tested) of some of the compounds of the formula (I) are shown in Table 2. In this connection, comparative compound 1 and comparative compound 2 are (3E)-1-methyl-3-(2-oxopropyridene)-1,3-dihydro-2H-indol-2-one, and (3E)-3-(2-oxopropyridene)-1-prop-2-in-1-yl-1,3-dihydro-2H-indol-2-one described in Non Patent Document 4 above, and has the following chemical structures, respectively.

A further data set addresses Cytochrome P450(2D6) (Homo sapiens, UniProt P10635). The data set can be described thus: Cytochrome P450(2D6) enzyme inhibition test. Particulars: CYP2D6, fluorescent substrate 1.5 μmol/L, 37° C., 20 minutes. The format is in vitro ADME. The procedure:
The experiment was performed in accordance with the method of Crespi et al. (Analytical Biochemistry, 248, 188-190, 1997).
As a substrate, 3-[2-(N,N-diethyl-N-methylamino)ethyl]-7-methoxy-4-methyl coumarine (1.5 μmol/L) a compound to be tested (3.1×10^−7 to 2×10^−5 M) and an enzyme (2.5×10^−8 M) were incubated at 37° C. for 20 minutes in total of […] of 100 mM phosphorous buffer (pH=7.4) including 8.2 mM NADP+, 0.41 mM glucose-6-phosphate, 0.41 mM MgCl2 and 0.4 Units/mL glucose-6-phosphate dehydrogenase, using 96 well plates. Then, 0.5 M aqueous 2-amino-2-hydroxymethyl-1,3-propandiol solution containing 80% acetonitrile was added to stop the reaction, fluorescence intensity (excitation wavelength; 390 nm, fluorescent wavelength; 460 nm) was measured with a fluorescent plate reader. An inhibition ratio was calculated with the following formula, and the test compound concentration when the inhibition ratio is 50% (IC50) was obtained.
C1: fluorescence intensity in the presence of the test compound and enzyme at know concentrations, and the substrate
C0: fluorescence intensity in the presence of the enzyme and substrate, without the test compound
B1: fluorescence intensity of blank well

In the next data set the target is T1, human TRPA1 (Homo sapiens, UniProt O75762, K186N/R3C/R58T).
T1 construct: expressed in transfected cells; pcDNA3.1(+) vector)
T1 sequence (O75762 whole entry R3C/R58T/K186N): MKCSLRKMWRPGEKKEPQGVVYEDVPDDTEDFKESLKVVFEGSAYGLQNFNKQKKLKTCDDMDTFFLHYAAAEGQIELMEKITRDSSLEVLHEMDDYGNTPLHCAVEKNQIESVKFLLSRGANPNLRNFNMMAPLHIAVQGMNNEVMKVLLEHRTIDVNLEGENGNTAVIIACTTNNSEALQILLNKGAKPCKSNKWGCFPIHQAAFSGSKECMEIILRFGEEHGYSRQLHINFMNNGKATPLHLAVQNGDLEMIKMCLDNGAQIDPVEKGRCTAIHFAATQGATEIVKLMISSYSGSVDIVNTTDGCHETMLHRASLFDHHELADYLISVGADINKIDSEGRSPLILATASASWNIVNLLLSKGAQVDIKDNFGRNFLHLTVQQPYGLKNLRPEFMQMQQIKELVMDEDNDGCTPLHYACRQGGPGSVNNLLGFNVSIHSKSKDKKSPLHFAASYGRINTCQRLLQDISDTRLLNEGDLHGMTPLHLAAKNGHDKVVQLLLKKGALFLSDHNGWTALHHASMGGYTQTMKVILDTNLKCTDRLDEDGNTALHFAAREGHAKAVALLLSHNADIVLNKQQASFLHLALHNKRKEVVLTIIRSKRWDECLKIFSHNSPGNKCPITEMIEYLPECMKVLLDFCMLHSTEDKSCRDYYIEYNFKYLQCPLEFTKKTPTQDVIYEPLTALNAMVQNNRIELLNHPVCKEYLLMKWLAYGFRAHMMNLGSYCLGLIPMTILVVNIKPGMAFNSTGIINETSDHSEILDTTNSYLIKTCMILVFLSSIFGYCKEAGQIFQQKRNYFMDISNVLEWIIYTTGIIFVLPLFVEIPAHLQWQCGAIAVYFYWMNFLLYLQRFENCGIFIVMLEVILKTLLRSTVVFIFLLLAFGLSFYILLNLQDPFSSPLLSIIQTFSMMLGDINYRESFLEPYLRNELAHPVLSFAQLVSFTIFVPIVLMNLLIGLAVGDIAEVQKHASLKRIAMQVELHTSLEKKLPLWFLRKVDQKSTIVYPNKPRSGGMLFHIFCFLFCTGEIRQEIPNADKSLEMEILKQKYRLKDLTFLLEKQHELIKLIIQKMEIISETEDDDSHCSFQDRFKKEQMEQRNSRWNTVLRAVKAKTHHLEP
Briefly: Measurement of TRPA1 activation activity (intracellular calcium, FLIPR, HEK293 cells stably expressing human TRPA1). The format is cell-based. The conditions noted are these: change of intracellular calcium concentration. The procedure:
10 ng of Human brain mRNA (Clontech Co.) was treated with DNase, and then was reverse transcribed using kit for reverse transcription-polymerase chain reaction (RT-PCR) (SUPERSCRIPT First-Strand Synthesis System for RT-PCR; Invitrogen Co.) to synthesize the first strand cDNA. PCR using a hot start method was performed using the first strand cDNA as a template and Taq DNA polymerase (LA Taq DNA polymerase; TAKARA SHUZO). The PCR was performed using oligonucleotides consisting of the nucleotide sequences, represented by sequence number 2 as a sense primer and sequence number 3 as an antisense primer, in which firstly, heat denaturation was performed at 98° C. (1 minute), and then a cycle of 98° C. (15 seconds)/56° C. (30 seconds)/72° C. (5 minutes) was repeated 35 times. As a result, a DNA fragment of about 3.3 kbp was amplified.
The DNA fragment was cloned to pCR-TOPO vector using a cloning kit (TOPO XL PCR Cloning Kit; Invitrogen). The obtained plasmid DNA was digested with restriction enzymes KpnI and HindIII, and then was cloned using plasmid pcDNA 3.1(+)(Invitrogen). In this connection, the plasmid pcDNA 3.1(+) has a promoter sequence derived from cytemegalovirus, and can be used in order to express a protein in animal cells.
The nucleotide sequences of the obtained clones were analyzed using DNA sequencer (ABI3700 DNA Sequencer; Applied Biosystems) by dideoxyterminator method, and the nucleotide sequence represented by sequence number 1 was obtained. Furthermore, when these sequences were translated to amino acid sequences, the amino acid sequence represented by sequence number 1 was obtained.
After constructing the expression vector of the human TRPA1 gene, selection by G418 was performed from the HEK293 cells which temporarily expressed TRPA1 by transfection operation to obtain cells stably expressing TRPA1. The above operation was performed according to known methods (experimental medicine supplementary volume, “Cultivation Cell Experimental Methods for Molecular Biology Study” published by Toshio Kuroki, Namho Hue and Kazuhiro Chida, 1995, Yodosha).
In order to measure the change of the intracellular calcium concentration in the cells stably expressing the human TRPA1, the change of the intracellular calcium concentration when a compound to be tested was added was measured using FLIPR (Molecular Device).
In order to measure the change of the intracellular calcium concentration with FLIPR, the following pretreatment was performed. First of all, assay buffer was prepared which was for adding fluorescent pigment Fluo4-AM (DOJIN) to the cells or washing the cells just before performing FLIPR assay. To a solution (hereinafter, HBSS/HEPES solution) where 20 mL of 1M HEPES (pH 7.4; Invitrogen) was added to 1000 mL of a physiological saline buffer (Hank's Balanced Salt Solution; HBSS) (Invitrogen), was added 10 mL of a solution where 710 mg of probenecid (Sigma) was dissolved into 5 mL of 1M aqueous NaOH solution and 5 mL of HBSS/HEPES solution was further added and mixed, and the assay buffer was thus prepared. Then, 50 μg of Fluo4-AM was dissolved into 22 μL of DMSO (DOJIN), the same amount of 20% pluronic acid (Molecular Probes) was added thereto and mixed, and the mixture was added to the 10.6 mL of the assay buffer where 105 μL of fetal bovine serum was added, to prepare a fluorescent pigment solution. The medium of the cells stably expressing TRPA1 was removed, 100 μL per well of the fluorescent pigment solution was dispensed immediately, followed by cultivation in a CO2 cultivator for 1 hour, and the fluorescent pigment was soaked in the cells. The cells after cultivation were washed using the assay buffer, followed by being set in FLIPR. Furthermore, a test sample, which was added to the cells stably expressing TRPA1, was prepared by using the assay buffer, and at the same time, was set in FLIPR. […]

For another data set, the system named is RIN14B cells. Briefly: Measurement of 5-HT secretion from RIN14B. The format is cell-based. Particulars: 20 minutes at 37° C., relative to 300 μM allyl isothiocyanate = 100%, HBSS only = 0%. The procedure:
In order to investigate whether TRPA1 is related to 5-HT release, 5-HT secretion promotion from RIN14B by a compound to be tested was measured.
The RIN14B cells cultivated in a petri dish were scraped using Phosphate buffered saline (PBS) containing 1 mM EDTA, distributed into 24 well plates, and cultivated for 2 days. As a medium, a medium in which 10% fetal bovine serum (ICN), 100 U/mL penicillin, and 100 μg/mL streptomycin was added to RPMI1640 (Invitrogen), was used. The cells were washed once with HBSS (Invitrogen) and added with 0.1% BSA and 10 μM fluoxetine (TOCRIS Co.), followed by dilution with the above HBSS, the prepared compound to be tested was added to RIN14B cells, followed by cultivation at 37° C., under 5% CO2 condition for 20 minutes. After cultivation, supernatant of cells was recovered, followed by freeze preservation. The content of 5-HT in the supernatant was measured by a commercial serotonin immunoassay kit (Beckman). 5-HT release promotion activation value (%) was evaluated as a relative value when the 5-HT release promotion value by 300 μM of allyl isothiocyanate was defined as 100%, and the 5-HT release promotion value by HBSS for dilution only was defined as 0%.

Data set [1] deals with delay of discharging time induced by loperamide in mice. Briefly: Loperamide induced constipation model (glass bead discharging time). The class given is in vivo. Particulars: Mus musculus, read-out: ED50 (amount which suppresses 50% of the delay of discharging time induced by loperamide). The procedure:
It has been known that loperamide as a μ opioid receptor agonist causes convulsive contraction in intestinal tracts. Thus, a delay in the intestinal transport ability due to loperamide is thought as a constipation IBS model.
Mice (Slc:ddY, five-week old, male) fasted from the previous evening of the experiment. On the day of the experiment, the mice were acclimatized to cages for measurement for 1 hour or more, and 0.3 mg/kg of loperamide was administered subcutaneously. After 30 minutes, a compound to be tested was administered orally, ether anesthesia was applied to the mice immediately thereafter, glass beads having diameter of 3 mm were inserted to 2 cm from anus. The mice were returned to the cages for measurement, and the time from waking to discharging of the glass beads was measured. Furthermore, the compound to be tested was dissolved into 10% DMSO, 10% cremophor, and 80% distillated water.
As a result, it has been recognized that there was a delay in the beads discharging time of the loperamide administration group (vehicle group) in comparison with the loperamide non-administration group (control group).
ED50 values (amount of the compound to be tested which suppresses 50% of the delay of discharging time induced by loperamide) of some of the compounds of the formula (I) are shown in Table 3. In this connection, comparative compound 1 is the same compound as comparative compound 1 in Test Example 4.

Setting [2] is: male wistar rats, oral administration, versus control animals.
Setting [3] is: mice (Slc:ddY, male), 0.3 mg/kg loperamide subcutaneously, compound orally.

Cytochrome P450(2D6), sequence (P10635 whole entry): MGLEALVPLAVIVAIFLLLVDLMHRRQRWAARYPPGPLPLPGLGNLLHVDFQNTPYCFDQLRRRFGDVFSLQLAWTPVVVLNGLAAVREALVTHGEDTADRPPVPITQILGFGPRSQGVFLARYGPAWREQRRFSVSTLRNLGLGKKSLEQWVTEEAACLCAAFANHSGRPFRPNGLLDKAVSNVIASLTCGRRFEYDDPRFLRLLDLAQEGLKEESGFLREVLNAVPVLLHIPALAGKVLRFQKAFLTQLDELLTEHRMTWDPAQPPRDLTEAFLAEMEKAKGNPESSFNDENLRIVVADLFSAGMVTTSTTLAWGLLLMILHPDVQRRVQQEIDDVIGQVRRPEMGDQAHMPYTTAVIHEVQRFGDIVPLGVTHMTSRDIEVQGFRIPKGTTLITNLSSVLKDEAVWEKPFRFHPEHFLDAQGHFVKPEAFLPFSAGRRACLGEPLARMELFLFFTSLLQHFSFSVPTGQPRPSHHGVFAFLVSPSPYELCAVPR

`CC(C)CN1C(=O)/C(=C/C(=O)O)c2cccc(F)c21` [Example 1, (2E)-(7-fluoro-1-isobutyl-2-oxo-1,2-dihydro-3H-indol-3-ylidene)acetic acid]: the ED50 – broadly, the dose that gives a 50% effect, or the effect in half of the subjects – in the data set on gastric emptying of rats (setting [2]) worked out at 0.13 mg/kg. Further, at Cytochrome P450(2D6), the IC50 (in general, the concentration needed to halve the response being measured) was above 20 µM. In addition, at human TRPA1, the EC50 (commonly the concentration giving half of the maximal effect) was found to be 4.27 µM.

For `COC(=O)c1cccc(CN2C(=O)/C(=C/C(N)=O)c3ccccc32)c1` [Example 4, methyl 3-{[(3E)-3-(2-amino-2-oxoethylidene)-2-oxo-2,3-dihydro-1H-indol-1-yl]methyl}benzoate], the “5-HT release promotion activation value” in the data set on RIN14B cells was determined as 144.6%. On human TRPA1, the EC50 was determined as 1.2 µM.

As to `CC(C)CN1C(=O)/C(=C/C(=O)O)c2ccccc21` [Example 13], the ED50 in the data set on gastric emptying of rats (setting [2]) came to 0.98 mg/kg; in data set [1] (setting [3]), 0.4 mg/kg.

With `O=C(O)/C=C1/C(=O)N(Cc2ccccc2)c2ccc(F)cc21` [Example 17, (2E)-(1-benzyl-5-fluoro-2-oxo-1,2-dihydro-3H-indol-3-ylidene)acetic acid], the melting point – broadly, the temperature, or range, at which the solid turns liquid – is 177 to 179 °C. The ED50 in the data set with gastric emptying of rats (setting [2]) amounted to 0.31 mg/kg. The same compound returned an IC50 at Cytochrome P450(2D6) above 20 µM. Further, the EC50 at human TRPA1 was found to be 4.45 µM.

`O=C(O)/C=C1/C(=O)N(CC2CCC2)c2ccccc21` [Example 24]: the ED50 was found to be 0.53 mg/kg in the data set on gastric emptying of rats (po) and 0.27 mg/kg in data set [1].

On to `CC(C)CN1C(=O)/C(=C/C(=O)O)c2cc(F)ccc21` [Example 27], for which the “5-HT release promotion activation value” in the data set with RIN14B cells was 40.0%. Besides, the EC50 on human TRPA1 came out at 4.63 µM.

`CC(C)CN1C(=O)/C(=C/C(=O)O)c2cccc(Cl)c21` [Example 31, (2E)-(7-chloro-1-isobutyl-2-oxo-1,2-dihydro-3H-indol-3-ylidene)acetic acid] returned a melting point of 142 to 144 °C. In addition, the ED50 in data set [1] (setting [3]) was 0.24 mg/kg. For the same compound, the EC50 on human TRPA1 came to 0.61 µM.

As for `O=C(O)/C=C1/C(=O)N(CC2CCC2)c2c(F)cccc21` [Example 32, (2E)-[1-(cyclobutylmethyl)-7-fluoro-2-oxo-1,2-dihydro-3H-indol-3-ylidene]acetic acid], the melting point was 166 to 168 °C. The ED50 with gastric emptying of rats (setting [2]) is 0.21 mg/kg. Moreover, on Cytochrome P450(2D6), the IC50 is above 50 µM. For the same compound, at human TRPA1, the EC50 stood at 1.16 µM.

On to `CCC(CC)CN1C(=O)/C(=C/C(=O)N2CCOCC2)c2cccc(F)c21` [Example 45, (3E)-1-(2-ethylbutyl)-7-fluoro-3-(2-morpholin-4-yl-2-oxoethylidene)-1,3-dihydro-2H-indol-2-one], for which the melting point lay within 102 to 104 °C. The ED50 in the data set with gastric emptying of rats (po) was found to be 0.57 mg/kg. In addition, on Cytochrome P450(2D6), the IC50 was 18 µM. At human TRPA1, the concentration for a half-maximal effect (EC50) is 1.29 µM.

Take `CC(=O)/C=C1/C(=O)N(C)c2ccccc21` [comparative compound 1, (3E)-1-methyl-3-(2-oxopropyridene)-1,3-dihydro-2H-indol-2-one, reference compound]: the results for the ED50 (with gastric emptying of rats (setting [2]); in data set [1] (setting [3])) were 2.8 mg/kg and 2.5 mg/kg, respectively.
